Patent US7825146B2, “Sulfonamide derivative having isoxazole ring” (Shionogi & Co., Ltd., priority 2003, dated 2010)

How the values were obtained:
MMP-2 = biological target: T1, MMP-2 (Homo sapiens, UniProt P08253); experiment: Assay for inhibitory activities on MMPs (fluorogenic MOCAc peptide substrate): MMP-2; format: biochemical; settings: MMP-2 purchased from Calbiochem-Novabiochem
T1 construct: purchased Calbiochem-Novabiochem International, Inc
T1 sequence (P08253 110-660): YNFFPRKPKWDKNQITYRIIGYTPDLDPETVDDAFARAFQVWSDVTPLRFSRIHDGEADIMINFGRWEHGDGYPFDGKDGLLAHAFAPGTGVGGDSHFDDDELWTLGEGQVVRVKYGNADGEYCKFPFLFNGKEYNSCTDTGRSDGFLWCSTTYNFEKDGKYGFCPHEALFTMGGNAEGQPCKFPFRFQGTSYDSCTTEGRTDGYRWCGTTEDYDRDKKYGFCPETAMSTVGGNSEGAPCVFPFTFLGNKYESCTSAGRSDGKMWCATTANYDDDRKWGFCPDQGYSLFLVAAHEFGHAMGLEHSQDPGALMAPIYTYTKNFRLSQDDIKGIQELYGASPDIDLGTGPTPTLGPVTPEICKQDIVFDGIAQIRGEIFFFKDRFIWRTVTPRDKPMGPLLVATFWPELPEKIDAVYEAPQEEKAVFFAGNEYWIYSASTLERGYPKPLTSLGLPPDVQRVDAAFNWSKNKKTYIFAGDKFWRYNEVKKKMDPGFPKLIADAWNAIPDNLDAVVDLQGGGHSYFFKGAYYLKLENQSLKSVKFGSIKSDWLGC
Description: MMP-2 was purchased from Calbiochem-Novabiochem International, Inc.
(§1) The enzymatic activity on MMPs was analyzed by the method described in “C. Graham Knight, Frances Willenbrock and Gillian Murphy: A novel coumarin-labelled peptide for sensitive continuous assays of the matrix metalloproteinases: FEBS LETT., 296, (1992), 263-266”. The substrate: MOCAc-Pro-Leu-Gly-Leu-A2Pr(DNP)-Ala-Arg-NH2 was purchased from Peptide Institute, Inc., Osaka, Japan. The measurement of the inhibitory activities (IC50) was carried out by the following four methods; • (A) Reaction with substrate, enzyme (MMPs) and inhibitor • (B) Reaction with substrate and inhibitor, without enzyme • (C) Reaction with substrate and enzyme (MMPs), without inhibitor • (D) Reaction with substrate only IC50 values were calculated by using the following formula and each fluorescence values of above four methods (A to D).
(§2) The value of inhibitory activity against MMP-2, MMP-8, MMP-9, MMP-12, and MMP-13 measured by above mentioned methods are shown in Table 36, 37, 38, 39, and 40 respectively.

MMP-9 = biological target: T2, MMP-9 (Homo sapiens, UniProt P14780); experiment: Assay for inhibitory activities on MMPs (fluorogenic MOCAc peptide substrate): MMP-9; format: biochemical; settings: from HT1080 cells, activated by TPCK-Trypsin
T2 construct: made in house; host or cells: endogenous secretion from human fibrosarcoma HT1080 cells (TPA-stimulated), purified from conditioned medium
T2 sequence (P14780 107-707 limits assumed): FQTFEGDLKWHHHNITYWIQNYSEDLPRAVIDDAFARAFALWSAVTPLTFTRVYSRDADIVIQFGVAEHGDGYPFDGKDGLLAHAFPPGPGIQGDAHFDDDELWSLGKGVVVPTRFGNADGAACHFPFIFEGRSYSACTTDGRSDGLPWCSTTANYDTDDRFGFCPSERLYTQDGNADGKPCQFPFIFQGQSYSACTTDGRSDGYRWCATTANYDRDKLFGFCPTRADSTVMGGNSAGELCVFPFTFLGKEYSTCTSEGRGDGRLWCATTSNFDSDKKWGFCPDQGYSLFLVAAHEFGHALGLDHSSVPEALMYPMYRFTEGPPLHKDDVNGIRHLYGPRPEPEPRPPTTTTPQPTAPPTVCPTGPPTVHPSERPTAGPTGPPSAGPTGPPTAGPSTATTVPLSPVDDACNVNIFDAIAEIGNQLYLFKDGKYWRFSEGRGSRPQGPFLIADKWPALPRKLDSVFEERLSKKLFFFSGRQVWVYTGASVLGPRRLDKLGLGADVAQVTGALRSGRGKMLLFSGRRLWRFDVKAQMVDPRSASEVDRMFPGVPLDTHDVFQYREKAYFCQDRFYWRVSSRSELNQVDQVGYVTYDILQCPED
Description: MMP-9 was isolated and purified by procedures described in as follows: Yasunori Okada, Yukio Gonoji, Katsumi Naka, Katsuro Tomita, Isao Nakanishi, Kazushi Iwata, Kyoko Yamashita, and Taro Hayakawa: Matrix metalloproteinase 9 (92-kDa gelatinase/type IV collagenase) from HT1080 human fibrosarcoma cells. Purification and activation of the precursor and enzymic properties J. Biol. Chem., 1992, 267 21712-21719, in combination with others: 1) Yasunori Okada, Tatsuhisa Morodomi, Jan J, Enghild, ko Suzuki, Atsushi Yasui, Isao Nakanishi, Guy Salvesen and Hideaki Nagase: Matrix metalloproteinase 2 from human rheumatoid synovial fibroblasts. Purification and activation of the precursor and enzymic properties. Eur. J. Biochem. 1990, 194 721-730; 2) Robin V Ward, Rosalind M Hembry; John J Reynolds and Gillian Murphy: The purification of tissue inhibitor of metalloproteinase-2 from its 72 kDa progelatinase complex. Biochem. J. 1991 278 179-187. In detail, human fibrosarcoma ATCC HT1080 cell line was cultured to confluent in Dulbecco's Modified Medium (DMEM) containing 10% fetal-calf serum at 37° C. for 48 hours. Subsequently, the medium of confluent culture was changed to serum-free DMEM medium. To obtain MMP-9, Phorbol-12-myristate-13-acetate (TPA) must be added to this serum-free DMEM medium at a concentration of 50 ng/ml. The TPA treated medium was centrifuged at 3000 rpm for 15 min and the supernatant was concentrated to 450 ml by a Toyo-Roshi UP-20 apparatus with an ultrafiltration membrane. Then, proMMP-9 in this concentrated solution was purified by using columns of Gelatin-Sepharose and Concanavalin A-Sepharose. The pool containing proMMP-9 was dialyzed, concentrated (Toyo-Roshi UP-20) and applied to columns of Sephacryl S-200 and Green A matrix for the separation from TIMPs. The obtained proMMP-9 fraction was activated by TPCK-Trypsin (Final conc. 3 μg/50 μl React Mix.).
as §1, §2

MMP-12 = biological target: T3, MMP-12 (Homo sapiens, UniProt P39900); experiment: Assay for inhibitory activities on MMPs (fluorogenic MOCAc peptide substrate): MMP-12; format: biochemical; settings: catalytic domain 100Phe-263Gly
T3 construct: In regard to MMP-12, catalytic domain(^100Phe˜^263Gly) was amplified with RT-PCR; His-tag; enterokinase digestion-site; made in house
T3 sequence (P39900 100-263): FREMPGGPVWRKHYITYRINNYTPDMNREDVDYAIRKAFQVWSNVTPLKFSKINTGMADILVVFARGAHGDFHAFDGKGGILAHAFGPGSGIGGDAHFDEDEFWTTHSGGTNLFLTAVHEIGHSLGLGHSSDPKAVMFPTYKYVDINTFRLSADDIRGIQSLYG
Description: (§3) In regard to MMP-12, catalytic domain(^100Phe˜^263Gly) was amplified with RT-PCR from Human Placenta Total RNA. This was cloned in Escherichia. coli expression vector pTrc99AHE inserted with His-tag sequence and enterokinase digestion-site, induced and expressed by IPTG (Isopropyl-β-D-thiogalactopyranoside) and expressed in a insoluble fraction. Isolation of MMP-12 from an insoluble fraction was carried out by dissolving in modifier (6M urea) by a usual method and purification with metal chelate chromatography (Ni Chelateing Sepharose). And then removing modifier (6M urea) with dialysis and refolding of the enzyme spontaneously gave activated MMP-12.
as §1, §2

MMP-13 = biological target: T4, MMP-13 (Homo sapiens, UniProt P45452); experiment: Assay for inhibitory activities on MMPs (fluorogenic MOCAc peptide substrate): MMP-13; format: biochemical; settings: Table 40
T4 construct: catalytic domain (^104Tyr˜^267Gly) was amplified with RT-PCR; His-tag; enterokinase digestion-site; made in house
Description: as §3, with “MMP-13, mRNA was prepared from carcinoma cell SW1353 derived from human cartilage stimulate by IL-1, TNF and” for “MMP-12,”, “domain (^104Tyr˜^267Gly)” for “domain(^100Phe˜^263Gly)”, “RT-PCR.” for “RT-PCR from Human Placenta Total RNA.”, “MMP-13” for “MMP-12”, “dialyze” for “dialysis”, “MMP-13.” for “MMP-12.”
as §1, §2

MMP-8 = biological target: T5, MMP-8 (Homo sapiens, UniProt P22894); experiment: Assay for inhibitory activities on MMPs (fluorogenic MOCAc peptide substrate): MMP-8; format: biochemical; settings: catalytic domain 99Phe-262Gly
T5 construct: In regard to MMP-8, catalytic domain (^99Phe˜^262Gly) was amplified with PCR; His-tag; enterokinase digestion-site; made in house
T5 sequence (P22894 99-262): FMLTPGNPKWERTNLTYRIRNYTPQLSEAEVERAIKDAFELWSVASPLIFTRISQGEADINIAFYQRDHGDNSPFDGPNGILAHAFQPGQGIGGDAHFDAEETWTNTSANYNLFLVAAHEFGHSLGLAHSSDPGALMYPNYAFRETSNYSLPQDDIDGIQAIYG
Description: In regard to MMP-8, catalytic domain (^99Phe˜^262Gly) was amplified with PCR using commercial available Human Bone Marrow cDNA. This was cloned in Escherichia. coli expression vector pTrc99AHE inserted with His-tag sequence and enterokinase digestion-site, induced and expressed by IPTG (Isdpropyl-β-D-thiogalactopyranoside) and expressed in a insoluble fraction (Thau F. Ho, M. Walid Qoronfleh, Robert C. Wahl, Trica A. Pulvino, Karen J. Vavra, Joe Falvo, Tracey M. Banks, Patricia G. Brake and Richard B. Ciccarelli: Gene expression, purification and characterization of recombinant human neutrophil collagenase. Gene 146, (1994) 297-301, Prepared by the a improved method of this material). Isolation of MMP-8 from an insoluble fraction was carried out by dissolving in modifier (6M urea) by a usual method and purification with metal chelate chromatography. And then removing modifier (6M urea) with dialysis and refolding of the enzyme spontaneously gave activated MMP-8.
as §1, §2

| Compound | IC50 (MMP-2) [nM] | IC50 (MMP-9) [µM] | IC50 (MMP-12) [µM] | IC50 (MMP-13) [µM] | melting point [°C] | IC50 (MMP-8) [µM] |
| --- | --- | --- | --- | --- | --- | --- |
| CC(C)[C@@H](NS(=O)(=O)c1ccc(-c2cc(-c3ccc(OC(F)(F)F)cc3)no2)cc1)C(=O)O [Example A-18] | 0.0674 | 0.00052 | 0.000376 | 0.000263 |  |  |
| CC(C)c1ccc(-c2cc(-c3ccc(S(=O)(=O)N[C@@H](C(=O)O)C(C)C)cc3)no2)cc1 [Example C-15] | 0.049 |  | 0.00015 | 0.000136 |  |  |
| CC(C)[C@@H](NS(=O)(=O)c1ccc(-c2cc(-c3ccc(Cl)c(F)c3)on2)cc1)C(=O)O [Example C-36] |  | 0.000741 | 0.000245 |  |  |  |
| CC(C)[C@@H](NS(=O)(=O)c1ccc(-c2cc(-c3ccc(Cl)cc3)on2)cc1)C(=O)O [Example C-20] |  | 0.00092 | 0.000366 |  |  |  |
| Cc1ccc(-c2cc(-c3ccc(S(=O)(=O)N[C@H](C)C(=O)O)cc3)no2)cc1 [Example C-1] |  |  | 0.000707 |  | 218 to 221 |  |
| CCc1ccc(-c2cc(-c3ccc(S(=O)(=O)N[C@@H](C(=O)O)C(C)C)cc3)no2)cc1 [Example C-12] | 0.0832 | 0.000532 | 0.000316 | 0.000266 |  |  |
| Cc1ccc(-c2cc(-c3ccc(S(=O)(=O)N[C@H](Cc4ccccc4)C(=O)O)cc3)no2)s1 [Example C-124] | 0.0926 | 0.000585 |  | 0.000528 |  | 0.00178 |
| CC(C)[C@@H](NS(=O)(=O)c1ccc(-c2cc(-c3ccc(Br)cc3)on2)cc1)C(=O)O [Example C-22] |  | 0.000706 | 0.000275 |  |  |  |
| CSc1ccc(-c2cc(-c3ccc(S(=O)(=O)N[C@H](C)C(=O)O)cc3)no2)cc1 [Example C-4] | 0.0934 |  | 0.000377 | 0.000404 |  |  |
| Cc1ccc(-c2cc(-c3ccc(S(=O)(=O)N[C@@H](C(=O)O)C(C)C)cc3)no2)s1 [Example C-29] | 0.0449 | 0.00034 | 0.000368 | 0.000701 |  | 0.000567 |
| CC(C)[C@@H](NS(=O)(=O)c1ccc(-c2cc(-c3ccc(SC(F)(F)F)cc3)no2)cc1)C(=O)O [Example A-32] |  | 0.000609 | 0.000463 | 0.000193 |  |  |
| CC(C)[C@@H](NS(=O)(=O)c1ccc(-c2cc(-c3ccc(OC(F)(F)F)cc3)on2)cc1)C(=O)O [Example C-25] |  | 0.00032 | 0.000196 | 0.000223 |  |  |
| CSc1ccc(-c2cc(-c3ccc(S(=O)(=O)N[C@@H](C(=O)O)C(C)C)cc3)no2)cc1 [Example C-10] | 0.0619 |  | 0.000201 | 0.000282 |  | 0.0039 |
| CC(C)[C@@H](NS(=O)(=O)c1ccc(-c2cc(-c3ccc(Cl)s3)on2)cc1)C(=O)O [Example C-33] |  | 0.000467 | 0.000535 |  |  | 0.000781 |
| CCCc1ccc(-c2cc(-c3ccc(S(=O)(=O)N[C@@H](C(=O)O)C(C)C)cc3)no2)cc1 [Example C-14] | 0.0533 |  | 0.000216 | 0.00015 |  |  |
| CC(C)c1ccc(-c2cc(-c3ccc(S(=O)(=O)N[C@@H](C(=O)O)C(C)C)cc3)on2)cc1 [Example A-16] | 0.0767 |  | 0.000687 | 0.000328 |  |  |
| Cc1ccc(-c2cc(-c3ccc(S(=O)(=O)N[C@@H](C(=O)O)C(C)C)cc3)on2)s1 [Example A-33] | 0.0971 |  |  |  |  | 0.00291 |
